The test system of data set [1] is Trypanosoma cruzi. In words: Antitrypanosomal activity against epimastigote stage of Trypanosoma cruzi Dm28c after 72 hrs by resazurin dye based microplate reader analysis. In kind it is functional. Background: Alamar Blue is a resazurin reagent that responds to reducing activity.
Data set [2] in a line: Selectivity index, ratio of CC50 for African green monkey Vero cells to IC50 for epimastigote stage of Trypanosoma cruzi Dm28c. It counts as functional.
The subject of data set [3] is Trypanosoma cruzi. In words: Antitrypanosomal activity against trypomastigotes stage of Trypanosoma cruzi strain CL Brener infected in acute chagas BALB/c mouse model assessed as survival rate at 10 mg/kg/day, po administered for 14 days started on day 9 post infection measured at 30 to 60 days. In kind it is functional.
Data set [4] in a line: Toxicity in acute chagas BALB/c mouse model infected with trypomastigotes stage of Trypanosoma cruzi strain CL Brener assessed as mortality at 50 mg/kg/day, po administered for 14 days started on day 9 post infection measured on day 20. In kind it is organism-based. The note with it: in vivo.
The test system of data set [5] is Trypanosoma cruzi. In words: Antitrypanosomal activity against trypomastigotes stage of Trypanosoma cruzi strain CL Brener infected in acute chagas BALB/c mouse model assessed as reduction in parasitaemia at 10 mg/kg/day, po administered for 14 days started on day 9 post infection measured at 30 to 60 days by Neubauer chamber analysis relative to control. In kind it is functional. More on the design: scale not given: the % may be the effect or the level left.

In data set [6] the test system is Trypanosoma cruzi. In words: Antitrypanosomal activity against trypomastigotes stage of Trypanosoma cruzi strain CL Brener infected in acute chagas BALB/c mouse model assessed as time for maximum parasitaemia parasitaemia at 10 mg/kg/day, po administered for 14 days started on day 9 post infection by Neubauer chamber analysis (reference value: 26 days). In kind it is functional.

In data set [7] the test system is Mus musculus. In words: Toxicity in acute chagas BALB/c mouse model infected with trypomastigotes stage of Trypanosoma cruzi strain CL Brener assessed as mortality at 50 mg/kg/day, po administered for 14 days started on day 9 post infection measured at 30 to 60 days. The note with it: in vivo. In kind it is organism-based.
The test system of data set [8] is Trypanosoma cruzi. In words: Antitrypanosomal activity against trypomastigotes stage of Trypanosoma cruzi strain CL Brener infected in acute chagas BALB/c mouse model assessed as survival rate at 50 mg/kg/day, po administered for 14 days started on day 9 post infection measured at 30 to 60 days. In kind it is functional, organism-based.

Activity calls are given as the source filed them. The rule behind the calls is not given here.

Consider `C/C(=N\NC(N)=[Se])c1ccccc1`, for which the IC50 (in general, the concentration at which inhibition is half-maximal) in data set [1] turned out to be 12.4 µM.

`CN(C)c1ccc(/C=N/NC(N)=[Se])cc1`: half-maximal inhibition in data set [1] (IC50) required 26.2 µM.

Consider `C/C(=N\NC(N)=[Se])C(C)C`, for which half-maximal inhibition in data set [1] (IC50) required 50.2 µM.

The compound `CC/C(=N\NC(N)=[Se])c1cccc(C(F)(F)F)c1` had an IC50 in data set [1] of 6.5 µM.

The compound `C/C(=N\NC(N)=[Se])c1cccc(Br)c1` displayed a half-maximal inhibitory concentration (IC50) in data set [1] of 1.2 µM. Further, the “Ratio CC50/IC50” value in data set [2] amounted to 39. In addition, the survival at 10 mg/kg/day in data set [3] worked out at 71%. In addition, in data set [4], the mortality (as a rule, the percentage killed) at 336 h was determined as 100%. Besides, in data set [5], the Activity amounted to 50%. Moreover, the Time in data set [6] came to 26 days.

Consider `O=C(Cn1ccnc1[N+](=O)[O-])NCc1ccccc1` [BENZNIDAZOLE], for which inhibition in data set [1] was half-maximal at 12.5 µM (IC50). Besides, the “Ratio CC50/IC50” value in data set [2] was determined as 25. In addition, in data set [7], the Activity entry is “Non-toxic”. Moreover, in data set [8], the result was Active.

For `C/C(=N\NC(N)=[Se])c1ccc(Cl)c(Cl)c1`, half-maximal inhibition in data set [1] (IC50) required 50.2 µM.

In data set [1], `COc1ccc(/C=N/NC(N)=[Se])cc1` showed an IC50 of 25.5 µM.

`C/C(=N\NC(N)=[Se])c1cccc(C)c1` came in with a half-maximal inhibitory concentration (IC50) in data set [1] of 12.2 µM.

For `C/C(=N\NC(N)=[Se])c1cccc(Cl)c1`, the midpoint of inhibition in data set [1], the IC50, lay at 12.5 µM.
